Experiment: Tissue distribution in JIMT-1 tumor-bearing mice
Assay type: in vivo
Details: 20 mg/kg tail vein injection
Method: 48 human breast cancer JIMT-1 tumor-bearing mice were randomly divided into 2 experimental groups, with a total of 6 mice in each experimental group at each time point. Both of the two preparations were administered to the respective experimental mice at a dose of 20 mg/kg through tail vein injection. Blood samples were collected from each group at 0.25, 1, 3 and 24 hours after administration and the mice were sacrificed immediately. Tumor, heart, liver, spleen, lung, kidney, stomach, small intestine, pancreas and ovary tissues were dissected and subjected to pretreatments such as homogenization, the drug concentration in each tissue sample was determined by protein precipitation-LC/MS/MS method, and the main pharmacokinetic parameters were calculated by using the non-compartmental model of Phoenix WinNonlin 8.0 software (Pharsight, USA).

CC(=O)O[C@H]1C(=O)[C@@]2(C)[C@H]([C@H](OC(=O)c3ccccc3)[C@]3(O)C[C@H](OC(=O)[C@H](O)[C@@H](NC(=O)c4ccccc4)c4ccccc4)C(C)=C1C3(C)C)[C@]1(OC(C)=O)CO[C@@H]1C[C@@H]2O [paclitaxel]
tissue with the highest exposure: highest exposure in the liver

— patent US20250288535A1, “INSTANT NANOPARTICLE COMPOSITION AND PREPARATION METHOD THEREFOR” (CSPC ZHONGQI PHARMACEUTICAL TECHNOLOGY (SHIJIAZHUANG) CO., …, priority 2022, published 2025)
